Each compound was assayed against T1, HCV-NS5b (Hepatitis C virus genotype 1b, UniProt Q9WMX2) (assay: HCV-NS5b Enzyme Assay). Details: 1 μM test compound; incorporation of [3H]-UTP, 37° C., 2 hours.
T1 construct: The cloned fragment was missing the C terminus 21 amino acid residues; (His)6 (C); made in house; host or cells: XL-1 cells (E. coli)
Format: biochemical
Method in brief: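 The NS5B construct lacks its C-terminal 21 residues, carries a C-terminal His6 tag and was expressed in E. coli. [^3H]-UTP incorporation on a biotinylated HCV heteropolymeric template (10 ng/μL) with 10 μM each NTP, pH 7.5, 5 mM MgCl2 and 5% DMSO ran 2 h at 37° C and was read by SPA scintillation. IC50s came from 10-point 2-fold series starting at 50 or 2 μM.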
`Cc1nc(C)c(-c2nc3ccc(-c4c(C5CCCCC5)c5ccc(C(=O)O)cc5n4CC(=O)N4CCOCC4)cc3[nH]2)s1` [Compound 320, 3-Cyclohexyl-2-[2-(2,4-dimethyl-thiazol-5-yl)-3H-benzoimidazol-5-yl]-1-(2-morpholin-4-yl-2-oxo-ethyl)-1H-indole-6-carboxylic acid] was tested, and the inhibition at 1 µM was 84.1%. `O=C(O)c1ccc2c(C3CCCCC3)c(-c3ccc(-c4ccccc4F)cc3)n(CC(=O)N3CCOCC3)c2c1` [Compound 302, 3-Cyclohexyl-2-(2′-fluoro-biphenyl-4-yl)-1-(2-morpholin-4-yl-2-oxo-ethyl)-1H-indole-6-carboxylic acid] was tested, and the inhibition at 1 µM was 99.3%. Work on `Cc1sc(-c2ccc3cc(-c4c(C5CCCCC5)c5ccc(C(=O)O)cc5n4CC(=O)N4CCOCC4)ccc3n2)c(C)[n+]1[O-]` [Compound 281, 3-Cyclohexyl-2-[2-(2,4-dimethyl-3-oxy-thiazol-5-yl)-quinolin-6-yl]-1-(2-morpholin-4-yl-2-oxo-ethyl)-1H-indole-6-carboxylic acid] yielded an inhibition at 1 µM of 77.6%. In the case of `O=C(O)c1ccc2c(C3CCCCC3)c(-c3ccc4nc(-c5ccccc5Cl)ccc4c3)n(CC(=O)N3CCOCC3)c2c1` [Compound 276, 2-[2-(2-Chloro-phenyl)-quinolin-6-yl]-3-cyclohexyl-1-(2-morpholin-4-yl-2-oxo-ethyl)-1H-indole-6-carboxylic acid], the inhibition at 1 µM is reported as 97.6%. `O=C(O)c1ccc2c(C3CCCCC3)c(-c3ccc4nc(-c5ccccc5C(F)(F)F)ccc4c3)n(CC(=O)N3CCOCC3)c2c1` [Compound 267, 3-Cyclohexyl-1-(2-morpholin-4-yl-2-oxo-ethyl)-2-[2-(2-trifluoromethyl-phenyl)-quinolin-6-yl]-1H-indole-6-carboxylic acid] gave an inhibition at 1 µM of 94.6%. With `O=C(O)c1ccc2c(C3CCCCC3)c(-c3ccc4nc(-c5cccc([N+](=O)[O-])c5)ccc4c3)n(CC(=O)N3CCOCC3)c2c1` [Compound 256, 3-Cyclohexyl-2-[2-(3-nitro-phenyl)-quinolin-6-yl]-1-(2-morpholin-4-yl-2-oxo-ethyl)-1H-indole-6-carboxylic acid] the inhibition at 1 µM was 98.1%. `COc1ccc(-c2ccc(-c3c(C4CCCCC4)c4ccc(C(=O)O)cc4n3CC(=O)N3CCOCC3)cc2)cc1` [Compound 301, 3-Cyclohexyl-2-(4′-methoxy-biphenyl-4-yl)-1-(2-morpholin-4-yl-2-oxo-ethyl)-1H-indole-6-carboxylic acid] gave an inhibition at 1 µM of 97%. Compound `O=C(O)c1ccc2c(C3CCCCC3)c(-c3ccc4nc(-c5c(F)cccc5F)ccc4c3)n(CC(=O)N3CCOCC3)c2c1` [Compound 259, 3-Cyclohexyl-2-[2-(2,6-difluoro-phenyl)-quinolin-6-yl]-1-(2-morpholin-4-yl-2-oxo-ethyl)-1H-indole-6-carboxylic acid] has an inhibition at 1 µM of 95.8%. Work on `Cc1nc(C)c(-c2ccc3cc(-c4c(C5CCCCC5)c5ccc(C(=O)O)cc5n4CC(=O)NCCO)ccc3n2)s1` [Compound 215, 1-[(2-hydroxyethylcarbamoyl)-methyl]-2-[2-(2,4-dimethyl-thiazol-5-yl)-quinolin-6-yl]-3-cyclohexyl-1H-indole-6-carboxylic acid] yielded an inhibition at 1 µM of 94.3%. `Cc1cccc(-c2ccc(-c3c(C4CCCCC4)c4ccc(C(=O)O)cc4n3CC(=O)N3CCOCC3)cc2)c1` [Compound 312, 3-Cyclohexyl-2-(3′-methyl-biphenyl-4-yl)-1-(2-morpholin-4-yl-2-oxo-ethyl)-1H-indole-6-carboxylic acid] gave an inhibition at 1 µM of 99.5%. For `COc1cccc(-c2ccc3cc(-c4c(C5CCCCC5)c5ccc(C(=O)O)cc5n4CC(=O)N4CCOCC4)ccc3n2)c1` [Compound 221, 3-Cyclohexyl-2-[2-(3-methoxy-phenyl)-quinolin-6-yl]-1-(2-morpholin-4-yl-2-oxo-ethyl)-1H-indole-6-carboxylic acid], the inhibition at 1 µM was 99.6%. `Cc1ccc(-c2ccc(-c3c(C4CCCCC4)c4ccc(C(=O)O)cc4n3CC(=O)N3CCOCC3)cc2)s1` [Compound 316, 3-Cyclohexyl-2-[4-(5-methyl-thiophen-2-yl)-phenyl]-1-(2-morpholin-4-yl-2-oxo-ethyl)-1H-indole-6-carboxylic acid] gave an inhibition at 1 µM of 101%. Compound `O=C(O)c1ccc2c(C3CCCCC3)c(-c3ccc4cc(-c5ccccc5)ccc4c3)n(CC(=O)N3CCOCC3)c2c1` [Compound 328, 3-Cyclohexyl-1-(2-morpholin-4-yl-2-oxo-ethyl)-2-(6-phenyl-naphthalen-2-yl)-1H-indole-6-carboxylic acid] has an inhibition at 1 µM of 101%. `COc1ccc(F)c(-c2ccc3cc(-c4c(C5CCCCC5)c5ccc(C(=O)O)cc5n4CC(=O)N4CCOCC4)ccc3n2)c1` [Compound 270, 3-Cyclohexyl-2-[2-(2-fluoro-5-methoxy-phenyl)-quinolin-6-yl]-1-(2-morpholin-4-yl-2-oxo-ethyl)-1H-indole-6-carboxylic acid] gave an inhibition at 1 µM of 95%. With `Cc1nc(C)c(-c2ccc3cc(-c4c(C5CCCCC5)c5ccc(C(=O)O)cc5n4CC(=O)N(C)C)ccc3n2)s1` [Compound 212, 1-[N,N-dimethylaminocarbonyl-methyl]-2-[2-(2,4-dimethylthiazol-5-yl)-quinolin-6-yl]-3-cyclohexyl-1H-indole-6-carboxylic acid] the inhibition at 1 µM was 96.8%. `CCN(CC)C1CCN(C(=O)Cn2c(-c3ccc4nc(-c5sc(C)nc5C)ccc4c3)c(C3CCCCC3)c3ccc(C(=O)O)cc32)CC1` [Compound 275, 3-Cyclohexyl-1-[2-(4-diethylamino-piperidin-1-yl)-2-oxo-ethyl]-2-[2-(2,4-dimethyl-thiazol-5-yl)-quinolin-6-yl]-1H-indole-6-carboxylic acid] was tested, and the inhibition at 1 µM was 98.9%. With `Cc1ccc(-c2ccc3cc(-c4c(C5CCCCC5)c5ccc(C(=O)O)cc5n4CC(=O)N4CCOCC4)ccc3n2)o1` [Compound 223] the “% inhibition @ 1 μM” value was 95.1%. `COc1ccc(-c2ccc3cc(-c4c(C5CCCCC5)c5ccc(C(=O)O)cc5n4CC(=O)N4CCOCC4)ccc3n2)cc1F` [Compound 273, 3-Cyclohexyl-2-[2-(3-fluoro-4-methoxy-phenyl)-quinolin-6-yl]-1-(2-morpholin-4-yl-2-oxo-ethyl)-1H-indole-6-carboxylic acid] gave an inhibition at 1 µM of 99.4%. `Cc1nc(C)c(-c2ccc3cc(-c4c(C5CCCCC5)c5ccc(C(=O)O)cc5n4CCCN(C)C)ccc3n2)s1` [Compound 286, 3-Cyclohexyl-1-(3-dimethylamino-propyl)-2-[2-(2,4-dimethyl-thiazol-5-yl)-quinolin-6-yl]-1H-indole-6-carboxylic acid] was tested, and the inhibition at 1 µM was 85.7%. `Cc1ccc(-c2ccc(-c3c(C4CCCCC4)c4ccc(C(=O)O)cc4n3CC(=O)N3CCOCC3)cc2)cc1` [Compound 300, 3-Cyclohexyl-2-(4′-methyl-biphenyl-4-yl)-1-(2-morpholin-4-yl-2-oxo-ethyl)-1H-indole-6-carboxylic acid] gave an inhibition at 1 µM of 98.2%. For `Nc1cccc(-c2ccc3cc(-c4c(C5CCCCC5)c5ccc(C(=O)O)cc5n4CC(=O)N4CCOCC4)ccc3n2)c1` [Compound 264, 2-[2-(3-Amino-phenyl)-quinolin-6-yl]-3-cyclohexyl-1-(2-morpholin-4-yl-2-oxo-ethyl)-1H-indole-6-carboxylic acid], the inhibition at 1 µM was 93%. `C=Cc1ccc(-c2ccc(-c3c(C4CCCCC4)c4ccc(C(=O)O)cc4n3CC(=O)N3CCOCC3)cc2)cc1` [Compound 314, 3-Cyclohexyl-1-(2-morpholin-4-yl-2-oxo-ethyl)-2-(4′-vinyl-biphenyl-4-yl)-1H-indole-6-carboxylic acid] was tested, and the inhibition at 1 µM was 98%. With `O=C(O)c1ccc2c(C3CCCCC3)c(-c3ccc4nc(-c5ccc(F)cc5)ccc4c3)n(CC(=O)N3CCOCC3)c2c1` [Compound 265, 3-Cyclohexyl-2-[2-(4-fluoro-phenyl)-quinolin-6-yl]-1-(2-morpholin-4-yl-2-oxo-ethyl)-1H-indole-6-carboxylic acid] the inhibition at 1 µM was 96.3%. Compound `Cc1nc(C)c(-c2ccc3cc(-c4c(C5CCCCC5)c5ccc(C(=O)O)c(C)c5n4CC(=O)N4CCOCC4)ccc3n2)s1` [Compound 238, 3-Cyclohexyl-2-[2-(2,4-dimethyl-thiazol-5-yl)-quinolin-6-yl]-7-methyl-1-(2-oxo-2-morpholino-4-yl-ethyl)-1H-indole-6-carboxylic acid] has an inhibition at 1 µM of 85.6%. With `O=C(O)c1ccc2c(C3CCCCC3)c(-c3ccc4nc(-c5ccccc5F)ccc4c3)n(CC(=O)N3CCOCC3)c2c1` [Compound 255, 3-Cyclohexyl-2-[2-(2-fluoro-phenyl)-quinolin-6-yl]-1-(2-morpholin-4-yl-2-oxo-ethyl)-1H-indole-6-carboxylic acid] the inhibition at 1 µM was 97.4%. `O=C(O)c1ccc2c(C3CCCCC3)c(-c3ccc4nc(-c5cccc(F)c5)ccc4c3)n(CC(=O)N3CCOCC3)c2c1` [Compound 261, 3-Cyclohexyl-2-[2-(3-fluoro-phenyl)-quinolin-6-yl]-1-(2-morpholin-4-yl-2-oxo-ethyl)-1H-indole-6-carboxylic acid] was tested, and the inhibition at 1 µM was 97.1%. In the case of `O=C(O)c1ccc2c(C3CCCCC3)c(-c3ccc4nc(-c5ccsc5)ccc4c3)n(CC(=O)N3CCOCC3)c2c1` [Compound 228, 1-[N-morpholinocarbonylmethyl]-2-[2-thien-3-ylquinolin-6-yl]-3-cyclohexyl-1H-indole-6-carboxylic acid], the “% inhibition @ 1 μM” value is reported as 96.2%. Compound `Cc1nc(C)c(-c2ccc3cc(-c4c(C5CCCCC5)c5ccc(C(=O)O)cc5n4CC(=O)N4CCC(C)CC4)ccc3n2)s1` [Compound 280, 3-Cyclohexyl-2-[2-(2,4-dimethyl-thiazol-5-yl)-quinolin-6-yl]-1-[2-(4-methyl-piperidin-1-yl)-2-oxo-ethyl]-1H-indole-6-carboxylic acid] has an inhibition at 1 µM of 97.7%. In the case of `O=C(O)c1ccc2c(C3CCCCC3)c(-c3ccc4nc(-c5ccccc5)ccc4c3)n(CC(=O)N3CCOCC3)c2c1` [Compound 220, 1-[N-morpholinocarbonylmethyl]-2-[2-phenylquinolin-6-yl]-3-cyclohexyl-1H-indole-6-carboxylic acid], the “% inhibition @ 1 μM” value is reported as 96.4%.
